“Also recorded” adds a separate entry of the source. Like-named read-outs stand apart in the source and are kept apart here.
What was measured:
[1] = test system: Ptchl and BCL2 in HaCaT cells; conditions: cited from earlier work
[2] = test system: Glil,2-mediated transcription in HaCat cells; conditions: cited from earlier work
Smo = Smo (Homo sapiens, UniProt Q99835); conditions: cited from earlier work
[3] = test system: Gli-mediated transcription; conditions: cited from earlier work; for Gli-mediated transcription: in a variety of cell types (Cur-61414: cell and tissues types; Robotnikinin: also synthetic human tissue)
[4] = test system: rats with complete Freund's adjuvant (CFA) injection (inflammatory pain); assay: Inflammatory pain paradigm: CFA hindpaw injection, thermal hyperalgesia by paw withdrawal latency (PWL); type: in vivo, Sprague-Dawley rats; conditions: rats after CFA hindpaw injection; for analgesic effect on thermal hyperalgesia (paw withdrawal latency, PWL): intrathecal (lumbar puncture) drug, Days 1-4; for development of tolerance to the analgesic effect (PWL): repeated intrathecal dosing
Description: Animals underwent complete Freund's adjuvant (CFA) injection under anesthesia. Hyperalgesia was then measured using withdrawal latency of the paw to a thermal stimulus (PWL). […] Drugs were administered using lumbar puncture under anesthesia.
Hyperalgesia was then measured using withdrawal latency of the paw to a thermal stimulus (PWL). […] Drugs were administered using lumbar puncture under anesthesia..
To test this, we examined the effects of pharmacologically blocking Smoothened activity in rodent pain models. Injection of Complete Freund's Adjuvant (CFA) into the rat hindpaw causes local inflammation, swelling, and decreased nociceptive thresholds, Stein, C., et al., A. Unilateral inflammation of the Hindpaw in rats as a Model of Prolonged Noxious Stimulation: Alterations in Behavior and Nociceptive Thresholds, Pharmacol Biochem Behav 31, […] (1988). FIG. 11 provides an inflammatory pain paradigm. Here, the hindpaws were injected with saline (sham, n=6), or CFA. […] Similarly, FIG. 10 provides a neuropathic pain paradigm. […] Animals received daily intrathecal injections of vehicle (n=3) or drugs (CP, n=6; MS, n=6; or MS+CP, n=5). Mechanical allodynia was assessed using Von Frey filaments. […] All data are+/−S.E.M.
Animals: Sprague-Dawley rats (male, […]) were housed three to a cage with water and food ad libitum and kept in temperature controlled rooms on a 12:12 hour light-dark cycle, with the dark cycle beginning at 7:00 pm. Animals were habituated to the testing environment for one week prior to testing and all tests were performed in the morning. All protocols were approved by our Institutional Animal Care and Use Committee.
(§1) Drugs and Intermittent Lumbar Puncture: Rats were anesthetized with 2% isoflurane in oxygen. The lumbar region was shaved, prepared with Betadine solution and the intervertebral spaces widened by placing the animal on a plexiglas tube.
Complete Freund's Adjuvant (CFA) […]: Under isoflurane […], the plantar surface of the left hindpaw was cleansed and 100 μl of CFA (Sigma, St. Louis, Mo.) injected using a 25-gauge needle. Animals recovered for 24 hours prior to analgesic testing.
Paw Withdrawal Latency (PWL): PWL was measured by placing the animals in Plexiglas cages (9×22×25 cm.) on a modified Hargreaves Device, consisting of a glass surface maintained at 30° C. A stimulus lamp was focused on the tail with three measurements taken on different portions of the tail. An abrupt flick of the tail secondary to the thermal stimulus was sensed by photodiodes, and this served to terminate the stimulus and stop the timer. Animals were habituated to the device for one week prior to testing and for 30 min before each test session. The intensity of the thermal stimulus used in the TFL test was adjusted so baseline TFL was between 10-12 seconds to 20 second was used as an automatic cutoff time to avoid paw damage. The TFLs at the time points of 15, 30, and 45 minutes post-injection were measured and compared (n=6-8 per group).

[5] = test system: morphine tolerance in rats; assay: Morphine tolerance assessed by tail flick latency (TFL); type: in vivo
Description: (§2) Drugs were administered daily using lumbar puncture under anesthesia. Tolerance was then assessed using tail flick latency (TFL), or the withdrawal latency of the tail to a thermal stimulus. […] On Day 8, all animals received morphine alone.
as §2, §1

[6] = test system: rats with sciatic nerve ligation (neuropathic pain); assay: Neuropathic pain paradigm: sciatic nerve ligation, mechanical allodynia by Von Frey filaments; type: in vivo, Sprague-Dawley rats; conditions: rats two weeks after sciatic nerve ligation; daily intrathecal (lumbar puncture) drug; sub-clinical/low dose of morphine
Description: Animals underwent sciatic nerve ligation as described (Chung et al.), and were then allowed to recover for two weeks. Allodynia was measured using mechanical withdrawal threshold (Von Frey hairs). […] Drugs were administered using lumbar puncture under anesthesia.
Hh signaling modulates neuropathic pain, inflammatory pain, and opioid tolerance in rats. […] With regards to neuropathic pain, animals underwent sciatic nerve ligation as previously described in Chung et al., and were then allowed to recover for two weeks. Allodynia was measured by assessing the withdrawal threshold to a mechanical stimulus (Von Frey hairs). […] Drugs were administered using lumbar puncture under anesthesia.
To test this, we examined the effects of pharmacologically blocking Smoothened activity in rodent pain models. Injection of Complete Freund's Adjuvant (CFA) into the rat hindpaw causes local inflammation, swelling, and decreased nociceptive thresholds, Stein, C., et al., A. Unilateral inflammation of the Hindpaw in rats as a Model of Prolonged Noxious Stimulation: Alterations in Behavior and Nociceptive Thresholds, Pharmacol Biochem Behav 31, […] (1988). FIG. 11 provides an inflammatory pain paradigm. Here, the hindpaws were injected with saline (sham, n=6), or CFA. […] Similarly, FIG. 10 provides a neuropathic pain paradigm. […] Mechanical allodynia was assessed using Von Frey filaments. […]

Sequence of Smo (Q99835 28-787): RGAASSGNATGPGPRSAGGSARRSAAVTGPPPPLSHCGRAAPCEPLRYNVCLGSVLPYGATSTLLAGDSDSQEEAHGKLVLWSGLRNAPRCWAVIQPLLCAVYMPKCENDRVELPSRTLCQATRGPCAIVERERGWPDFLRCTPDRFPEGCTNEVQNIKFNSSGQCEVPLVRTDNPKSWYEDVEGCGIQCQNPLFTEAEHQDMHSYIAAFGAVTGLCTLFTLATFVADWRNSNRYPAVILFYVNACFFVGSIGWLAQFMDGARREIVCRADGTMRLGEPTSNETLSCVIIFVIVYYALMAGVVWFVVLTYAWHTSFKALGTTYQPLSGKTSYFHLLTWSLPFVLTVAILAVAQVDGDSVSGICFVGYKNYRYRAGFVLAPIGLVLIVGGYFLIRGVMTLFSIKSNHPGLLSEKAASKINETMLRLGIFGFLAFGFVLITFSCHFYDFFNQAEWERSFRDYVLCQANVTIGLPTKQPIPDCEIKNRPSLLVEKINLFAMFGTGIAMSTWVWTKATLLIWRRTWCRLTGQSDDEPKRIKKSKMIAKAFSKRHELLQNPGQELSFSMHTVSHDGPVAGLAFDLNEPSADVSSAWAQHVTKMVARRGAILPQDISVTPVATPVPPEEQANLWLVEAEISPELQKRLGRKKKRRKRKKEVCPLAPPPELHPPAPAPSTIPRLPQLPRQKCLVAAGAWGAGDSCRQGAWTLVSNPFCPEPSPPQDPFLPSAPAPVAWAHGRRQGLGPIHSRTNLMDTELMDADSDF

Row | Compound | targeting / binding of Smo (Smo) | Gli-mediated transcription [3] | further results
1 | C/C1=C\CC(C)(C)/C=C/C(=O)/C(C)=C/CC1 [Zerumbone] |  |  | transcription of Ptchl and BCL2 [1]: Inhibits transcription of Ptchl and BCL2 in HaCaT cells; Glil,2-mediated transcription [2]: Inhibits Glil,2-mediated transcription in HaCat cells
2 | CS(=O)(=O)c1ccc(C(=O)Nc2ccc(Cl)c(-c3ccccn3)c2)c(Cl)c1 [GDC-0449] | Targets Smo | Represses Gli-medicated transcription in a variety of cell types | 
3 | CC(C)CC[C@H](O)[C@@H](C)[C@H]1CC[C@H]2[C@@H]3CC=C4C[C@@H](O)CC[C@]4(C)[C@H]3CC[C@]12C [22(S)-Hydroxycholesterol] | Does not bind directly to Smo | Activates Gli-mediated transcription in a variety of cell types | 
4 | C[C@H](CCCC(C)(C)O)[C@H]1CC[C@H]2[C@@H]3CC=C4C[C@@H](O)CC[C@]4(C)[C@H]3CC[C@]12C [25-Hydroxycholesterol] | Does not bind directly to Smo | Activates Gli-mediated transcription in a variety of cell types | 
5 | CCOc1cc(C(=O)Nc2ccc(Cl)c(-c3nc4ccccc4[nH]3)c2)cc(OCC)c1OCC [SANT2] | Targets Smo | Represses Gli-medicated transcription in a variety of cell types | 
6 | c1ccc2c(Oc3nc(Nc4ccc(N5CCOCC5)cc4)c4ncn(C5CCCCC5)c4n3)cccc2c1 [Purmorphamine] | Binds Smo and competes directly with cyclopamine-Smo | Activates Gli-mediated transcription in a variety of cell types | 
7 | CC(C)CCC[C@](C)(O)[C@H]1CC[C@H]2[C@@H]3CC=C4C[C@@H](O)CC[C@]4(C)[C@H]3CC[C@@]21C [20α-Hydroxycholesterol] | Does not bind directly to Smo | Activates Gli-mediated transcription in a variety of cell types | 
8 | CCc1ccc(-c2ccc(/C=C/C(=O)N3CCCCC3)cc2)nc1 [SANT4] | Targets Smo | Represses Gli-medicated transcription in a variety of cell types | 
9 | CNC1CCC(N(Cc2cccc(-c3ccncc3)c2)C(=O)c2sc3ccccc3c2Cl)CC1 (stereo not drawn) [SAG] | Binds Smo and competes directly with cyclopamine-Smo | Activates Gli-mediated transcription in a variety of cell types | 
10 | CC1=C2C[C@H]3[C@@H](CC=C4C[C@@H](O)CC[C@@]43C)[C@@H]2CC[C@]12O[C@@H]1C[C@H](C)CN[C@H]1[C@H]2C [Cyclopamine] | Targets Smo |  | analgesic effect on thermal hyperalgesia (paw withdrawal latency, PWL) [4]: mild analgesic effect that plateaued; analgesic effect on thermal hyperalgesia (paw withdrawal latency, PWL) ([4]; listed as cyclopamine): mild analgesic effect that plateaued; also recorded: had no analgesic effect; targeting / binding of Smo (Smo; listed as cyclopamine): target Smo; reversal of morphine tolerance (tail flick latency, TFL) ([5]; daily lumbar puncture, cyclopamine added to morphine from start, Day 3 or Day 5): completely reversed tolerance within two days; also recorded: reverses the development of morphine tolerance; tolerance on Day 8 after cyclopamine was removed (TFL) ([5]; on Day 8 all animals received morphine alone): animals were not tolerant on Day 8; analgesic effect on mechanical allodynia (mechanical withdrawal threshold, Von Frey) [6]: Neither morphine or cyclopamine had analgesic effects; also recorded: Neither a sub-clinical dose of morphine nor cyclopamine had analgesic effects; also recorded: neither cyclopamine nor a low dose of morphine had analgesic effects alone
11 | CC1=C2C[C@H]3[C@@H](CC=C4CC(=O)CC[C@@]43C)[C@@H]2CC[C@]12O[C@@H]1C[C@H](C)CN(CCNC(=O)CCCCCNC(=O)CCc3ccccc3)[C@H]1[C@H]2C [KAAD-cyclopamine] | target Smo |  | 
12 | COc1cccc(CN(C(=O)CC(C)(C)C)[C@H]2C[C@@H](C(=O)N3CCNCC3)N(Cc3ccc4c(c3)OCO4)C2)c1 [Cur-61414] | Targets Smo |  | 
13 | C[C@]12C(=O)C=CCC1=CC[C@@H]1[C@@H]2CC[C@]2(O)C(=O)O[C@@]3(C)[C@H]4C[C@]5(C)[C@@H](CO[C@@]16O[C@@]32[C@H]5C6=O)C(=O)O4 [Physalin B] |  |  | transcription of Ptchl and BCL2 [1]: Inhibits transcription of Ptchl and BCL2 in HaCaT cells; Glil,2-mediated transcription [2]: Inhibits Glil,2-mediated transcription in HaCat cells
14 | CN1CC[C@]23c4c5ccc(O)c4O[C@H]2[C@@H](O)C=C[C@H]3[C@H]1C5 [morphine] |  |  | analgesic effect on thermal hyperalgesia (paw withdrawal latency, PWL) [4]: caused analgesia; analgesic effect on thermal hyperalgesia (paw withdrawal latency, PWL) ([4]; listed as Morphine): exhibited analgesic effects; development of tolerance to the analgesic effect (PWL) [4]: tolerance developed with repeated dosing; development of tolerance to the analgesic effect (PWL) ([4]; listed as Morphine): tolerance developed rapidly; analgesic effect on mechanical allodynia (mechanical withdrawal threshold, Von Frey) [6]: Neither morphine or cyclopamine had analgesic effects; also recorded: Neither a sub-clinical dose of morphine nor cyclopamine had analgesic effects; also recorded: neither cyclopamine nor a low dose of morphine had analgesic effects alone
15 | CC(C)[C@@H](O)CC[C@@H](C)[C@H]1CC[C@H]2[C@@H]3CC=C4C[C@@H](O)CC[C@]4(C)[C@H]3CC[C@]12C [24(S)-Hydroxycholesterol] | Does not bind directly to Smo | Activates Gli-mediated transcription in a variety of cell types | 
16 | CC1=C2C[C@H]3[C@@H](CC[C@@H]4C[C@H](NS(C)(=O)=O)CC[C@@]43C)[C@@H]2CC[C@@]2(C1)O[C@@H]1C[C@H](C)CN[C@H]1[C@H]2C [IPI-926] | Targets Smo | Represses Gli-medicated transcription in a variety of cell types | 
17 | C[C@@]12C[C@H]3OC(=O)[C@@H]1CO[C@]14O[C@]5([C@H]2C1=O)[C@@](O)(CC[C@H]1[C@H]4C[C@H]2O[C@]24CC=CC(=O)[C@]14C)C(=O)O[C@@]35C [Physalin F] |  |  | transcription of Ptchl and BCL2 [1]: Inhibits transcription of Ptchl and BCL2 in HaCaT cells; Glil,2-mediated transcription [2]: Inhibits Glil,2-mediated transcription in HaCat cells
18 | O=C1NCc2c1c1c3ccccc3[nH]c1c1[nH]c3ccccc3c21 [Staurosporinone] |  |  | transcription of Ptchl and BCL2 [1]: Inhibits transcription of Ptchl and BCL2 in HaCaT cells; Glil,2-mediated transcription [2]: Inhibits Glil,2-mediated transcription in HaCat cells
19 | c1cc(-c2sc(-c3ccncc3)c(-c3ccncc3)c2-c2ccncc2)ccn1 [GANT58] |  | Represses Gli-medicated transcription in a variety of cell types | site of action in the pathway [3]: Acts downstream of Smo and Sufu
20 | CN(C)c1ccccc1CN1CCCN(Cc2ccccc2N(C)C)C1c1ccncc1 [GANT61] |  | Represses Gli-medicated transcription in a variety of cell types | site of action in the pathway [3]: Acts downstream of Smo and Sufu
21 | Cc1nn(-c2ccccc2)c(C)c1/C=N/N1CCN(Cc2ccccc2)CC1 [SANT1] | Targets Smo | Represses Gli-medicated transcription in a variety of cell types | 

From US20130191933A1, “METHODS OF TREATING PAIN AND MORPHINE TOLERANCE VIA MODULATION OF HEDGEHOG SIGNALLING PATHWAY” (BOARD OF REGENTS, THE UNIVERSITY OF TEXAS SYSTEM, priority 2010, published 2013)
